Measurements reported in patent US20110098180A1, “Herbicide-Resistant Plants, And Polynucleotides And Methods For Providing Same” (United States Department of Agriculture, priority 2002, published 2011).

Tests used:
Experiment in all cases: Fluridone enzyme inhibition assay, non-His-tagged PDS (Table 1)
[1] = target: Hydrilla PDS Arg^304 Arginine (wildtype) (Hydrilla verticillata, UniProt Q66PY0); type: biochemical; conditions: Arginine at 304 (reference)
Method: (§1) The expression constructs in Table 1 were derived from an original clone of the susceptible PDS gene from Hydrilla and then the Arg^304 was mutated to the listed amino acid. Expression was under the control of the lac promoter […] with the initiation codon of the LacZalpha-ccdB gene in the pCR4-TOPO vector (Invitrogen Inc., CA, Cat. #K4575-01).
(§2) All mutagenesis was performed, unless stated otherwise, using the TOPO-vector containing the wildtype (H4) PDS-sequence, which was extracted from an overnight culture with the Qiagen Plasmid Prep Kit as described above. The amount of the extracted plasmid was diluted to 10 ng/μl and used as template in a mutagenesis-procedure using the QuikChange Site-directed Mutagenesis Kit (Stratagene, Calif., #200518). The design of the mutagenesis-primers was conducted according to the manufacturers protocol to enable the specific change of Arg^304-codon to code for the desired amino acid. Primers (purchased from MWG-Biotech) and their introduced amino acid change are listed below with the changed codon underlined:
The reactions were performed according to the manufacturers protocol. […] Sequences were assembled and analyzed using Seqman. […]
Phytoene desaturase activity and its inhibition by herbicides was determined using an in vitro system using components derived from the in vivo production of phytoene and phytoene desaturase proteins. […]

[2] = tested on: Hydrilla PDS Arg^304 → Tyrosine; type: biochemical, Hydrilla verticillata; conditions: relative to Arginine
Method: as §1, §2
(§3) The reactions were performed according to the manufacturers protocol. Reactions were set up in MicroAmp-tubes on ice with 38 μl ddH2O, 5 μl 10× reaction buffer, 2 μl plasmid (10 ng/μl), 1.25 μl forward-mutagenesis primer (100 ng/μl), 1.25 μl of reverse mutagenesis primer (100 ng/μl), 1 μl dNTP-mix and 1 μl PfuTurboDNA polymerase (2.5 U/μl). The reactions were placed in a PE 9700 thermal cycler and heated to 95° C. for 30 sec followed by 12 rounds at 95° C. for 30 sec, 55° C. for 1 min and 68° C. for 12 min. The PCR was followed by a DpnI-digestion and transformation in XL1-Blue supercompetent cells as described in the manual. 4-6 resulting colonies were grown overnight in LB-medium with kanamycin and plasmid DNA was isolated as described above. The plasmid was used as template for sequencing with M13 and internal PDS-primers as described above on a LiCOR-system. Sequences were assembled and analyzed using Seqman. Introduced mutations were identified and plasmids carrying the desired mutation(s) were transferred into competent TOP10-cells, using the transformation protocol from the TOPO TA Cloning Kit. Resulting colonies were grown overnight in Wu-broth with kanamycin, aliquoted and stored at −80° C. until further use. 1 ml of Wu-cultures was used to start 1-L LB-cultures with kanamycin as described before, to express active PDS-enzyme for testing as described.
(§4) Phytoene desaturase activity and its inhibition by herbicides was determined using an in vitro system using components derived from the in vivo production of phytoene and phytoene desaturase proteins. All mutations described in Examples 3 and 4 were tested. […] The clones were used for the heterologous expression of Hydrilla-PDS-enzyme. In particular, bacterial cultures were grown from single colonies overnight in Wu-broth (6.27 g/L K2HPO4, 1.8 g/L KH2PO4, 0.5 g/L Na-citrate, 0.9 g/L (NH4)2SO4, 10 g/L tryptone, 5 g/L yeast extract, 10 g/L NaCl, 44 ml/L glycerol, 0.1 mM MgSO4, pH 7.2) with kanamycin. 1-mL was aliquoted in centrifuge tube and stored at −80° C. For expression, 1 L LB-medium with kanamycin was inoculated with 1-mL Wu-culture and grown for 24 h at 37° C. to stationary phase with shaking at 200 rpm. The cells were collected by centrifugation at 2000×g. All of the following steps were done at 4° C. unless otherwise noted. Active soluble PDS enzyme was extracted by lysing the transformed E. coli cells using a French Press at 20,000 psi in assay buffer consisting of 100 mM Tris-HCl, pH 7.2, 10 mM magnesium-chloride, 0.1 mM NADP, 0.1 mM FAD, 10 mM cysteine, 5 mM DTT, 1 mM aminocaproic acid, and 1 μg/ml leupeptin. The soluble fraction containing PDS activity was obtained by centrifugation for 10 min at 1200×g. After 24 h they were centrifuged down and used in PDS enzyme activity assays as described below.

[3] = tested on: Hydrilla PDS Arg^304 → Phenyalanine; type: biochemical, Hydrilla verticillata; conditions: relative to Arginine
Method: as §1, §2, §3, §4

[4] = tested on: Hydrilla PDS Arg^304 → Aspartic acid; type: biochemical, Hydrilla verticillata; conditions: relative to Arginine
Method: as §1, §2, §3, §4

[5] = tested on: Hydrilla PDS Arg^304 → Isoleucine; type: biochemical, Hydrilla verticillata; conditions: relative to Arginine
Method: as §1, §2, §3, §4

[6] = tested on: Hydrilla PDS Arg^304 → Lysine; type: biochemical, Hydrilla verticillata; conditions: relative to Arginine
Method: as §1, §2, §3, §4

[7] = tested on: Hydrilla PDS Arg^304 → Threonine; type: biochemical, Hydrilla verticillata; conditions: relative to Arginine
Method: as §1, §2, §3, §4

[8] = tested on: Hydrilla PDS Arg^304 → Asparagine; type: biochemical, Hydrilla verticillata; conditions: relative to Arginine
Method: as §1, §2, §3, §4

[9] = tested on: Hydrilla PDS Arg^304 → Glutamine; type: biochemical, Hydrilla verticillata; conditions: relative to Arginine
Method: as §1, §2, §3, §4

[10] = tested on: Hydrilla PDS Arg^304 → Glutamic acid; type: biochemical, Hydrilla verticillata; conditions: relative to Arginine
Method: as §1, §2, §3, §4

[11] = tested on: Hydrilla PDS Arg^304 → Alanine; type: biochemical, Hydrilla verticillata; conditions: relative to Arginine
Method: as §1, §2, §3, §4

[12] = tested on: Hydrilla PDS Arg^304 → Methionine; type: biochemical, Hydrilla verticillata; conditions: relative to Arginine
Method: as §1, §2, §3, §4

[13] = tested on: Hydrilla PDS Arg^304 → Valine; type: biochemical, Hydrilla verticillata; conditions: relative to Arginine
Method: as §1, §2, §3, §4

[14] = tested on: Hydrilla PDS Arg^304 → Glycine; type: biochemical, Hydrilla verticillata; conditions: relative to Arginine
Method: as §1, §2, §3, §4

Chain of Hydrilla PDS Arg^304 Arginine (wildtype) (Q66PY0 1-580): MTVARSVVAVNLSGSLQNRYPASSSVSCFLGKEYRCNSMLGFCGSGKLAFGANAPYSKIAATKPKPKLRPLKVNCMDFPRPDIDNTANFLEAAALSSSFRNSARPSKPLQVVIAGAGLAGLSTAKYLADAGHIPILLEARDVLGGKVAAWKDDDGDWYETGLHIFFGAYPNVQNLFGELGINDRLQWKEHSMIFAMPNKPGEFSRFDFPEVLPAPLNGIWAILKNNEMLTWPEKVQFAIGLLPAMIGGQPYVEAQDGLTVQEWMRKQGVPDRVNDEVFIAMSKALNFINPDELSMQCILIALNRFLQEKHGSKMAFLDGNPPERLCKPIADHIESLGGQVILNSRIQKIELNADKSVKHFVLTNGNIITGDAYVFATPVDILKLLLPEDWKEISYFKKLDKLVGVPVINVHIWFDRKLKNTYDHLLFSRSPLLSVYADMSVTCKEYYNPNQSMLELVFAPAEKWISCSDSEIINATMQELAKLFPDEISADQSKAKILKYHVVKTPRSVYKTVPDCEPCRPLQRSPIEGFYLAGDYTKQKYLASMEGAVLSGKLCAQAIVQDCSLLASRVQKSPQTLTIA

For Fluridone, the R/S [1] was 1, the R/S [2] was 4 and the R/S [3] was 2.6. For the same substance, the R/S [4] was 10, the R/S [5] was 10 and the R/S [6] was 5. For the same substance, the R/S [7] was 40, the R/S [8] was 3.2 and the R/S [9] was 19. For the same substance, the R/S [10] was 1.5, the R/S [11] was 22.5 and the R/S [12] was 11.5. The R/S [13] was 11 and the R/S [14] was 3.2.
